Assay results as given in US9857359B2, “Methods for determining drug efficacy using cereblon-associated proteins” (CELGENE CORPORATION, priority 2012, dated 2018).

Assays:
Aiolos [1] = assay: Aiolos flow cytometry in B and T cells of healthy volunteers; assay type: in vivo, human; details: doses greater than 0.3 mg
Description: Healthy volunteers were administered placebo (n=10) or Compound B at doses of 0.03 mg, 0.1 mg, 0.3 mg, 1 mg, or 2 mg (N=6 each). Blood samples were drawn prior to dosing, or 3 hr, 12 hr, and 24 hr after dosing. 1. Blood samples were lysed and fixed immediately by mixing 1 volume of blood with 20 volumes of 1× Lyse/Fix buffer (BD Biosciences, cat#558049) and mixing thoroughly by inverting the tube several times. This sample mix was incubated in a 37° C. water bath for 10 minutes, and the cells were pelleted by centrifugation at 800×g for 5 minutes to remove the supernatant by aspiration. The cells were washed twice with 2 mL of cold phosphate buffer saline (PBS), then permeabilized by adding 2 mL of cold BD Cytofix/cytoperm buffer and incubated on ice for 15 minutes. The cells were centrifuged then washed twice with BD perm/wash buffer, then resuspended in 40 μL of BD perm/wash buffer. Cells were stained with anti-CD3 or anti-CD19 antibody, and 20 μL of anti-Aiolos Ab (Santa Cruz Santa Cruz, rabbit polyclonal IgG, cat#sc-101982 at 1:200 dilution with staining buffer), or 20 μL of appropriate isotype controls to cells. Cells were mixed thoroughly and incubated at room temperature for 30 minutes in the dark, washed once with BD perm/wash buffer, then resuspended in 80 μL of BD perm/wash buffer, and 20 μL of secondary antibody was added before analysis on a flow cytometer.

Helios = molecular target: T1, Helios (Homo sapiens, UniProt Q9UKS7); assay: SimpleWestern of normal human CD19+ B cells, Helios; assay type: cell-based; details: various concentrations
T1 construct: endogenous in cells; host or cells: normal human CD19+ B cells
Description: Human B cells were isolated from 3 donors of whole bloods from the New Jersey Blood Center using B cell isolation kits from StemCell Technologies. IKZF family proteins were quantified using the automated capillary-based SimpleWestern System Sally (ProteinSimple). 100 ng of cell lysate protein or serial dilutions of recombinant proteins were mixed in reducing buffer with fluorescent Molecular Weight (MW) standards. After these samples were heated to 95° C. for 5 min, samples were loaded into each capillary tubes and proteins were separated based on MW sizes through stacking and separation matrices for 40 minutes at 250 Volts. Proteins were then immobilized to capillary walls using optimal photoactivated capture chemistry. Following protein immobilization, capillaries were incubated with a blocking reagent for 23 min and target proteins were probed with a specific primary antibody and horseradish peroxidase-conjugated anti-rabbit secondary antibody (ProteinSimple). A mixture of luminol and peroxide (ProteinSimple) was added, the resulting chemiluminescent signal was captured by a CCD camera, and the signal intensities were quantified and analyzed using Compass Software for Sally (ProteinSimple). The Ikaros family proteins in each sample were then calculated based on standard curve of human recombinant proteins. B-Actin was also used as an internal normalization control.

human tumor xenograft = assay: Human tumor xenograft model (DLBCL); assay type: in vivo
Aiolos [2] = assay: Overexpressed flag-Aiolos-myc in AU565 cells, western blot; assay type: cell-based
Description: In some experiments, cell lines were transfected with an Aiolos overexpression vector using Lipofectamine reagent in a batch method. Cells were seeded in a 12 well plate at 1×10^5 cells in a 3 mL volume per well. Where specified, cells were pretreated with MG132 at 10 uM for 1 hour, or DMSO was added as a control. Following the pretreatment, Compound A was added directly to the cell culture media at the specified concentration.
Cells were harvested and lysed in Pierce #89900 Ripa buffer containing 2× protease inhibitor cocktail from Pierce #78442. The lysate was applied to a QiaShredder to remove DNA. Total protein yield was measured using BioRad DC protein determination kit (Cat#500-0112). Lysates were stored at −80° C. until use. Samples were applied to BioRad Criterion PreCast gels, 10% (Bio-Rad#345-0010) and transferred to Bio-Rad Nitrocellulose/Filter Paper Sandwiches (#162-0233) for western blot analysis.

Aiolos [3] = assay: Aiolos inhibition by cohort in cancer patients, flow cytometry; assay type: in vivo, human; details: by time and dose
Description: Cancer patients were administered Compound A at doses of 0.5 mg, 1 mg, 1.5 mg, 2 mg, 2.5 mg, 3 or 3.5 mg. Blood samples were drawn immediately prior to dosing and 1.5 hr and 5 hr post single dose of Compound A. Peripheral blood mononuclear cells were FICOLL®-isolated from whole blood samples and viably frozen in DMSO. The cells were washed twice with 2 mL of cold phosphate buffer saline (PBS), then permeabilized by adding 2 mL of cold BD CYTOFIX/CYTOPERM™ buffer and incubated on ice for 15 minutes. The cells were centrifuged then washed twice with BD PERM/WASH™ buffer, then resuspended in 40 μl of BD PERM/WASH™ buffer. Cells were stained with anti-CD3 or anti-CD19 antibody, and 20 μl of anti-Aiolos Ab (Santa Cruz Santa Cruz, rabbit polyclonal IgG, cat#sc-101982 at 1:200 dilution with staining buffer), or 20 μL of appropriate isotype controls to cells. Cells were mixed thoroughly and incubated at room temperature for 30 minutes in the dark, washed once with BD perm/wash buffer, then resuspended in […] of BD PERM/WASH™ buffer, and 20 μL of secondary antibody was added before analysis on a flow cytometer.

T1 sequence (Q9UKS7 whole entry): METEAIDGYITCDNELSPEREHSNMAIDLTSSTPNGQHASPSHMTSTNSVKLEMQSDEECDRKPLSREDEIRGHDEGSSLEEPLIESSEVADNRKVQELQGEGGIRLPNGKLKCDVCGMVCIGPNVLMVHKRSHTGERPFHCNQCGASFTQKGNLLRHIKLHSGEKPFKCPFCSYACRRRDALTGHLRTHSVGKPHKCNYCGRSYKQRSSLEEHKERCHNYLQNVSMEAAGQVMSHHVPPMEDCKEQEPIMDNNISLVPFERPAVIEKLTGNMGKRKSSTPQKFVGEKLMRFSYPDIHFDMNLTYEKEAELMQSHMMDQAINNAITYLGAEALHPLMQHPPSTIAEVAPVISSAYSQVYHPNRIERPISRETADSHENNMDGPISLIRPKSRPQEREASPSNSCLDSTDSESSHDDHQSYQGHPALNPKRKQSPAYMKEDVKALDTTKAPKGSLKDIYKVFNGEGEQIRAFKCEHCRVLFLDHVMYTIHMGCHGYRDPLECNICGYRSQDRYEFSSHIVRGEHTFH

O=C1CC[C@H](N2Cc3c(OCc4ccc(CN5CCOCC5)cc4)cccc3C2=O)C(=O)N1 [Compound B, 3-(4-((4-(morpholinomethyl)benzyl)oxy)-1-oxoisoindolin-2-yl)piperidine-2,6-dione]
Aiolos expression in CD19+ B cells and CD3+ T cells (Aiolos [1]): inhibited Aiolos expression at significant levels | Helios expression (Helios): without affecting Helios, Pegasus, or β-Actin

Nc1cccc2c1CN(C1CCC(=O)NC1=O)C2=O (stereo not shown) [lenalidomide]
Tumor growth (human tumor xenograft): delayed tumor growth

Cc1nc2cccc(N)c2c(=O)n1C1CCC(=O)NC1=O (stereo not shown) [Compound A, 3-(5-amino-2-methyl-4-oxo-4H-quinazolin-3-yl)-piperidine-2,6-dione]
Inhibition of Aiolos with proteasome inhibitor MG-132 (Aiolos [2]; MG132 pretreatment): rescued by the addition of proteasome inhibitor MG-132 | Time at which reduction of overexpressed Aiolos begins to show (Aiolos [2]; after the treatment): about 5 hours | Aiolos inhibition in B cells (Aiolos [3]): Aiolos inhibition correlates with Compound A exposure | Aiolos inhibition in T cells (Aiolos [3]): Aiolos inhibition correlates with Compound A exposure
